In data set [1] the target is T1, dopamine autoreceptor (Rattus norvegicus, UniProt P61169).
T1 construct: homogenized rat striatal brain tissue; from tissue; host or cells: rat striatal brain tissue homogenate
As to the kind of experiment: [3H]-quinpirole binding, dopamine autoreceptor affinity (D2 Quin.). Conditions: homogenized rat striatal brain tissue. Here is the method:
Affinity for the dopamine autoreceptor was established by a modification of the standard experimental test procedure of Seemen and Schaus, European Journal of Pharmacology 203: 105-109, 1991, wherein homogenized rat striatal brain tissue is incubated with [^3H]-quinpirole (Quin.) at various concentrations of test compound, filtered, washed and counted in a Betaplate scintillation counter.

Data set [2] relates to dopamine D2 receptor. As to the kind of experiment: [3H]-spiperidone binding, dopamine D2 receptor (D2 Spiper). Conditions: ratio of D2 Spiper IC50 to D2 Quin. IC50 (LowAg/HighAg).
Experimental: High affinity for the dopamine D2 receptor was established by the standard experimental test procedure of Fields, et al., Brain Res., 136, 5789 (1977) and Yamamura et al., ed., Neurotransmitter Receptor Binding, Chapter 9, page 171, Raven Press, N.Y. (1978) wherein homogenized limbic brain tissue is incubated with [^3H]-spiperidone at various concentrations of test compound, filtered washed, and shaken with Hydrofluor scintillation cocktail (National Diagnostics) and counted in a Packard 460 CD scintillation counter.

The structures appear in SMILES notation. Counter-ions that a name gives are not always drawn.

T1 sequence (P61169 whole entry): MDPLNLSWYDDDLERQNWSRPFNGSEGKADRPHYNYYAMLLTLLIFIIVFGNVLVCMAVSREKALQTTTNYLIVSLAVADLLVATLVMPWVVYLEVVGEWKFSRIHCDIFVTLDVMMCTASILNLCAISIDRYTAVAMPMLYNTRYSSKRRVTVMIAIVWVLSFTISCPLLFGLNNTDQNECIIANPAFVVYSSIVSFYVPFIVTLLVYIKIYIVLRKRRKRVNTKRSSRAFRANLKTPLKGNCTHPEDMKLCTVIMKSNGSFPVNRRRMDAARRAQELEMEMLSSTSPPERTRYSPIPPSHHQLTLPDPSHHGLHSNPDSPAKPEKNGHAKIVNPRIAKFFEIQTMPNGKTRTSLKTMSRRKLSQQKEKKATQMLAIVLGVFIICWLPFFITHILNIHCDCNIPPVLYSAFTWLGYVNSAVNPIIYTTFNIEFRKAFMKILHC

With `FC(F)(F)c1nc2ccc3c(c2[nH]1)OC(CNCc1ccccc1)CC3` (stereo not drawn) (as salt: oxalate) [Example 1, Benzyl-(2-trifluoromethyl-1,6,7,8-tetrahydro-9-oxa-1,3-diaza-cyclopenta[a]naphthalen-8-ylmethyl)-amine], the melting point (usually the temperature of the solid-liquid transition) is 244 °C.
As to `FC(F)(F)c1nc2ccc3c(c2[nH]1)OC(CNCc1ccccc1)CC3` (stereo not drawn) [Example 1, Benzyl-(2-trifluoromethyl-1,6,7,8-tetrahydro-9-oxa-1,3-diaza-cyclopenta[a]naphthalen-8-ylmethyl)-amine], in data set [1], the IC50 (usually the concentration needed to halve the response being measured) was 11.5 nM. Besides, in data set [2], the Ratio worked out at 75.

The values above are taken from patent publication US6541502B1, “2-(aminomethyl)-tetrahydro-9-oxa-1,3-diaza-cyclopenta[a]-naphthalenyl derivatives with antipsychotic activity” (Wyeth, priority 2001, dated 2003).
